Experimental data from publication PMC9046208, “Foldamers reveal and validate therapeutic targets associated with toxic α-synuclein self-assembly” (Nature Communications, 2022).

Assays:
[1] = test system: HEK cells expressing αS-A53T-YFP; test: MTT viability of HEK cells treated with PMCA samples / PD fibrils; format: cell-based; conditions: for Relative cell viability (Supp. Figure 27): HEK cells, PD+SK-129
Procedure: The HEK293 cells that stably express αS-A53T-YFP and αS-YFP were grown in DMEM with 10% FBS and 1% pen/strep and cultured in an incubator at 37 °C and 5% CO2(g). A total of 60,000 cells per well in 300 µL media were plated in a µ-slide eight-well plate (Ibidi, Munich, Germany) and incubated for 24 h to adhere to the plate. […] Next, the plate was incubated for 24 h, followed by the addition of 30 µL of 1x PBS buffer containing MTT dye (in 1x PBS buffer, 5 mg/mL) to each well. The plates were wrapped in aluminum foil and incubated for 3 h. After 3 h, all liquid was aspirated carefully without disturbing the formazan crystals. To each well, 300 µL of DMSO was added to dissolve the crystals. Once dissolved, the DMSO solution was transferred to a clear 96-well plate (100 µL/well). The absorbance was read on a 96-well plate reader at 570 nm. The cytotoxicity of the HEK cells was monitored for up to 4 days.
The seeds were generated by aggregating recombinant αS (100 µM) in the absence and presence of SK-129 at an equimolar ratio under the ThT aggregation kinetic conditions for seven days. In the case of seeds from the brain, we used a PMCA sample (5th cycle) generated from the brain seeds in the absence and presence of SK-129 at an equimolar ratio.
Supplementary Fig. 27. Effect of SK-129 on the PD fibrils catalyzed aggregation of αS templated by PMCA technique. a, The representative confocal images of HEK cells after treatment with PMCA samples from the PD and control brain. The green color images are due to the intracellularly expressed αSA53T-YFP. The αSA53T-YFP inclusions, αS-pS-129, and DAPI are represented by green, red, and blue colors. The αSA53T-YFP inclusions are indicated by white arrows. b, The αSA53T-YFP inclusions, P62, and DAPI are represented by green, red, and blue colors. The αSA53T-YFP inclusions are indicated by white arrows. c, The statistical analysis of the relative viability of HEK cells treated with the indicated conditions for 24 h determined using the MTT-reduction toxicity assay. The data were expressed as mean and the error bars report the s.e.m.
(n = 4 independent cell viability experiments and each n consisted of 4 technical replicates). The statistical analysis was performed using ANOVA with Tukey’s multiple comparison test. *p<0.05, **p<0.01, ***p<0.001, ****p<0.0001. Source data are provided as a Source Data file.

[2] = test system: HEK cells expressing αS-A53T-YFP; test: Intracellular seed catalyzed aggregation in HEK cells, MTT viability; format: cell-based; conditions: 10 µM SK-129 added 8 h after PD seeds, up to four days
Procedure: The HEK cells (200,000 cells/mL) were plated in an µ-slide eight-well plate (300 µL/well) and incubated at 37 °C and 5% CO2 (g), and allowed to adhere to the plate for 24 h in media (DMEM, 10% FBS, 1% pen/strep). […] The HEK cells were incubated with αS fibrils for 8 h followed by the addition of 10 µM SK-129 for 300 µL media in each well (0.3 µL of 10 mM stock solution in DMSO, total DMSO = 0.1% v,v). The eight-well plate was incubated for a total of 24 h. The eight-well plate after 24 h was used for both confocal imaging and for the cytotoxicity measurements using MTT assay (2 wells/condition, 300 µL/well). In each experiment, 2 wells were used for each condition, including control (only media and DMSO), fibrils, and fibrils+SK-129.
The HEK cells in the eight-well plate were treated with 30 µL of 1x PBS buffer containing MTT dye (5 mg/mL in 1x PBS buffer) to each well. The plates were wrapped in aluminum foil and incubated for 3 h. After 3 h, all liquid was aspirated carefully without disturbing the formazan crystals. To each well, 300 µL of DMSO was added to dissolve the crystals. Once dissolved, the DMSO solution was transferred to a clear 96-well plate (100 µL/well). The absorbance was read on a 96-well plate reader at 570 nm. The cytotoxicity assay was conducted up to four days from when the protein conditions were added to the cells. […]

[3] = target: T1, αS seed-catalyzed aggregation (Homo sapiens, UniProt P37840); test: Seed-catalyzed ThT aggregation assay (10% WT αS seeds), WT αS; format: biochemical; conditions: equimolar ratio
T1 construct: made in house; host or cells: Escherichia coli BL21(DE3), periplasm
Procedure: (§1) Seed-catalyzed αS aggregation assay was performed similarly to a previously described protocol. Briefly, 100 μM monomeric WT αS solution (200 μL, in 1x PBS buffer) was placed into a ThermoMixer (Eppendorf, Hamberg, Germany) and shook for five days at a rate of […] and 37 °C. The solution was sonicated for 10 min and used as αS seeds. The seed-catalyzed aggregation of WT αS/ αS variants was performed by adding αS seeds (10% seeds, αS in monomeric concentration, v/v) into 140 μL of fresh 100 μM WT αS/ αS variants solution and aggregation was started with constant shaking at a rate of […] and 37 °C. The aggregation of proteins was monitored at the indicated times (See the main manuscript) using the above-mentioned method.
(§2) The ThT aggregation assay for each protein (WT αS and αS variants) in the presence of SK-129 was carried out the above-mentioned method. SK-129 (from 10 mM stock solution in DMSO) was added at an equimolar ratio (1% DMSO, v/v) to the proteins at the start of the aggregation experiment. The concentration of DMSO was kept constant (1%, v/v) in protein (WT αS and αS variants), control, and protein+molecule solutions. The kinetic profiles of protein aggregation were processed using OriginPro software (Version 9.1). Kinetic curves were fit using a built-in sigmoidal fit in the OriginLab.

[4] = target: T2, αS2 seed-catalyzed aggregation (Homo sapiens, UniProt P37840, DEL15-23); test: Seed-catalyzed ThT aggregation assay (10% WT αS seeds), αS2; format: biochemical; conditions: αS2, equimolar ratio
T2 construct: made in house
Procedure: as §1, §2

Structure (SMILES): COC(=O)c1cc(OCC(=O)O)c2cccc(NC(=O)c3cc(OC(C)C)c4cccc(NC(=O)c5cc(OCC(=O)O)c6cccc(NC(=O)c7cc(OC(C)C)c8cccc([N+](=O)[O-])c8n7)c6n5)c4n3)c2n1 [SK-129]
- Relative cell viability (Supp. Figure 27) ([1]; trial 1): 0.879
- Relative cell viability (Supp. Figure 27) ([1]; trial 2): 0.798
- Relative cell viability (Supp. Figure 27) ([1]; trial 3): 0.821
- Relative cell viability (Supp. Figure 27) ([1]; trial 4): 0.823
- Relative cell viability (Supp. Figure 27) ([1]; trial 5): 0.659
- Relative cell viability (Supp. Figure 27) ([1]; trial 6): 0.702
- Relative cell viability (Supp. Figure 27) ([1]; trial 7): 0.735
- Relative cell viability (Supp. Figure 27) ([1]; trial 8): 0.834
- Relative cell viability (Supp. Figure 27) ([1]; trial 9): 0.865
- Relative cell viability (Supp. Figure 27) ([1]; trial 10): 0.808
- Relative cell viability (Supp. Figure 27) ([1]; trial 11): 0.853
- Relative cell viability (Supp. Figure 27) ([1]; trial 12): 0.884
- Relative cell viability (Supp. Figure 27) ([1]; trial 13): 0.902
- Relative cell viability (Supp. Figure 27) ([1]; trial 14): 0.783
- Relative cell viability (Supp. Figure 27) ([1]; trial 15): 0.732
- Relative cell viability (Supp. Figure 27) ([1]; trial 16): 0.693
- cell viability of HEK cells ([1]; PD fibrils+SK-129, 24 h, MTT, PD fibrils alone 50.5 ± 5.4%): 85.6 ± 7.8%
- cell viability of HEK cells [2]: significantly higher upto four days
- effect on seed-catalyzed aggregation [3]: wholly suppressed
- effect on seed-catalyzed aggregation [4]: wholly suppressed
